Measured values from US20130039928A1, “COMPOSITIONS AND METHODS FOR REVERSING CORTICOSTEROID RESISTANCE OR TREATING RESPIRATORY INFECTIONS” (priority 2010, published 2013).

What was measured:
[1] = tested on: CD80/86, MHC-11, CD14 and CD206; conditions: FACS
Protocol: To examine the contribution of MARCO in mediating bacterial phagocytosis by alveolar macrophages following sulforaphane treatment, an antibody-depletion approach was employed. The specificity of anti-MARCO antibody was validated by immunoblot analysis (FIG. 12). […] To assess the effect of sulforaphane on the phenotype of macrophages, CD80/86, MHC-11, CD14 and CD206 were analyzed by FACS.

Pseudomonas aeruginosa = conditions: THP-1 macrophages, 10 μM for 24 hours
Protocol: To determine intracellular killing, macrophages were treated with vehicle (DMSO) or sulforaphane (10 μM) for 24 hours. Cells were then washed and the medium was replaced with serum-free medium. After the medium replacement, approximately 10^5 CFUs of PA were added to each well. After 1 h, the medium was removed and cells were washed, and the gentamicin-containing medium was added to kill bound, unphagocytosed bacteria. Cells were lysed at the indicated time points, and lysates were plated to determine viable intracellular bacteria.

[2] = tested on: nontypeable Haemophilus influenzae; conditions: COPD alveolar macrophages, compared to vehicle
Protocol: Human alveolar macrophages were purified from individual BAL samples by centrifugation and seeded onto 6-well tissue culture plates. After incubation for 2 h, non-adherent cells were removed and the adherent cells were incubated with R, S-sulforaphane (5 μM; LKT Laboratories, Inc., St. Paul, Minn.) and or DMSO in RPMI 1640 culture medium with 10% FBS and 1% penicillin-streptomycin (Invitrogen, Carlsbad, Calif.). After 16-20 h, adherent cells were scraped, suspended in RPMI 1640 culture media and plated onto 96-well tissue culture plates for bacterial phagocytosis and clearance assays. […] For MARCO antibody-depletion, alveolar macrophages were incubated with human anti-MARCO antibody (1 μg/ml; (Hycult, Uden, The Netherlands) for 4 hours prior to bacterial challenge.
Sputum isolates of nontypeable H. influenzae and P. aeruginosa obtained from patients with COPD at the Department of Veterans Affairs, Western New York Healthcare System were used (S. Sethi, N. Evans, B. J. Grant, T. F. Murphy, N Engl J Med 347, 465 (Aug. 15, 2002); C. S. Berenson, M. A. Garlipp, L. J. Grove, J. Maloney, S. Sethi, J Infect Dis 194, 1375 (Nov. 15, 2006); T. F. Murphy et al., Am J Respir Crit Care Med 177, 853 (Apr. 15, 2008); T. F. Murphy, A. L. Brauer, A. T. Schiffmacher, S. Sethi, Am J Respir Crit Care Med 170, 266 (Aug. 1, 2004)). […]
Bacterial phagocytosis was quantified using a flow cytometry analysis.

IL-8 = experiment: Corticosteroid responsiveness: basal and LPS-induced IL-8 secretion by alveolar macrophages; assay type: cell-based, human
Protocol: (§1) For inducing corticosteroid resistance, PMs were exposed to cigarette smoke condensate (CSC, 100 μg/ml; Murty Pharmaceuticals, Lexington, Ky.) for 16 h. Exposure to S-nitrosoglutathione (GSNO, 10 μM) was limited to 4 h. […] For assessing corticosteroid responsiveness, macrophages were incubated with dexamethasone (1 μM, Sigma) for 1 h followed by LPS (100 ng/ml, Sigma) for additional 4 h.
For human IL-8 and mouse IL-6 and MCP-1 proteins, Quantikine ELISA kits from R&D systems (Minneapolis, Minn.) were used according to the manufacturer's instructions.

SNO proteins = conditions: anti-SNO immunoblot, verified by DAN assay, vs vehicle
Protocol: S-nitrosylated proteins were detected by using the nitrate/nitrite fluorometric assay kit from Cayman chemicals (Ann Arbor, Mich.) according to the manufacturer's instructions. For HDAC2-specific nitrosylation detection, cells were lysed in buffer (50 mM Tris-HCl, pH 8.0, 150 mM NaCl, 1% Nonidet P-40, 0.5% deoxycholic acid, 0.1% SDS). These lysates were then subjected to immunoprecipitation by using an anti-HDAC2 antibody as described above. The immunoprecipitates were washed twice with lysis buffer and twice with PBS. The pellets were resuspended in 500 μL of PBS. After the addition of 100 μM HgCl2 and 100 μM DAN, the samples were incubated in the dark at 25° C. for 30 minutes, and 1 M NaOH was added. The generated fluorescent triazole from the reaction of the DAN with the NO released from the HDAC2 protein was measured by using an excitation wavelength of 375 nm and an emission wavelength of 450 nm. As a negative control, the antibody alone in lysis buffer was immunoprecipitated. The resulting background fluorescence intensity was subtracted for each experiment.

Nrf2 = conditions: COPD alveolar macrophages, 5 μM for 16 h
Protocol: as §1
All immunoblots were performed by using protocols as described previously (Barnes, P. J., N Engl J Med 343, 269-280 (2000)). Rabbit anti-HDAC2 antibody from Santa Cruz Biotechnology (Santa Cruz, Calif.) was used at 1:500 dilutions. Rabbit anti-5-nitroso-cysteine antibody from Alpha diagnostics was used at 1:500 dilutions. Rabbit anti-nitro-tyrosine antibody from Cell Signaling Technology, was used at 1:250 dilution. Rabbit anti-ubiquitin antibody from Santa Cruz Biotechnology (Santa Cruz, Calif.) was used at 1:1000 dilutions. Rabbit anti-GR antibody from Santa Cruz Biotechnology (Santa Cruz, Calif.) was used at a dilution of 1:1000. Rabbit anti-MMP9 antibody from Sigma Aldrich was used at 1:500 dilutions. Rabbit anti-acetyl-lysine antibody from Abcam was used at 1:750 dilutions. Rabbit anti-lamin-B1 from Santa Cruz Biotechnology (Santa Cruz, Calif.) was used at 1:1000 dilutions as a loading control. The Image J program was used for densitometry analyses.
Total RNA was extracted from the cells by lysis and specific binding to a silica membrance (Qiagen RNeasy kit, Qiagen, Valencia, Calif.), and qRT-PCR was performed by using primers and probe sets for human IL-8, NQO1, GCLM, and iNOS (Assay-on-Demand, Applied Biosystems, Foster City, Calif.). A real-time fluorescent PCR system (ABI 7000 Taqman system, Applied Biosystems) was used to perform these assays. β-actin was used as the normalization control.

C[S+]([O-])CCCCN=C=S (centres unmarked) [sulforaphane]
expression of other markers (MHC-11, CD14) [1]: no significant difference
expression of receptors CD80/86 and CD206 [1]: Moderate suppression
kinetics of intracellular killing (Pseudomonas aeruginosa): moderate increase in the kinetics of intracellular killing
phagocytosis of FITC-labeled nontypeable Haemophilus influenzae [2]: significantly enhanced phagocytosis
DEX sensitivity (histone acetylation on IL-8 promoter, IL-8 expression) (IL-8; in the presence of buthionine sulfoximine (BSO)): failed to improve DEX sensitivity
IL-8 levels (IL-8; sulforaphane alone, basally and after LPS treatment): significantly reduced IL-8 levels
DEX's inhibitory effect on basal and LPS-induced IL-8 secretion (fold reduction) (IL-8; sulforaphane treatment then DEX, P<0.01, N=25 patients): 5 fold
SNO proteins in lysates (SNO proteins): significant reduction in SNO proteins
GSH biosynthesizing enzymes (GCLC, GCLM) (Nrf2): significantly elevated
Nrf2-regulated antioxidant genes (NQO1, HO-1) (Nrf2): significantly elevated
Nrf2 nuclear protein levels (Nrf2): significantly elevated
